These are literature values, as cited in patent publication US20130316464A1, “ANALYTE […] AND METHOD” (priority 2010, published 2013).

The structures appear in SMILES notation.

For this series, the system named is erythrocytes. The conditions noted are these: whole blood.

As for `CC(C)c1cccc(C(C)C)c1O` [propofol, 2,6-diisopropylphenol], the “proportion of the propofol partitioned into / bound to blood cells (erythrocytes)” value is 30-40%.
